Target: BSA glycation (Bos taurus, UniProt P02769)
Test: Determination of antiglycation activity (BSA glycation by glucose, fluorescence of glycated BSA)
Assay type: biochemical, bovine
Details: for The average concentration of AGEs in the sample at a given concentration of the drug (Δ %, M ± m): BSA 1 mg/ml, glucose 500 mM, pH 7.4, 24 hours at 60° C
Procedure: The reaction mixture contains solutions of bovine serum albumin (1 mg/ml) and glucose (500 mM) in phosphate buffer (pH=7.4). To prevent bacterial growth, sodium azide in a final concentration of 0.02% is added to the buffer solution. All substances are dissolved in dimethyl sulfoxide (DMSO). […] All experimental samples are incubated for 24 hours at 60° C. At the end of the incubation period, specific fluorescence of glycated bovine serum albumin (BSA) is determined using an F-7000 spectrofluorimeter (Hitachi, Japan) at an excitation wavelength of 370 nm and an emission wavelength of 440 nm.
The calculation of the IC50 indicator is carried out by the method of regression analysis (Table 2).

BSA glycation, sequence (P02769 25-607): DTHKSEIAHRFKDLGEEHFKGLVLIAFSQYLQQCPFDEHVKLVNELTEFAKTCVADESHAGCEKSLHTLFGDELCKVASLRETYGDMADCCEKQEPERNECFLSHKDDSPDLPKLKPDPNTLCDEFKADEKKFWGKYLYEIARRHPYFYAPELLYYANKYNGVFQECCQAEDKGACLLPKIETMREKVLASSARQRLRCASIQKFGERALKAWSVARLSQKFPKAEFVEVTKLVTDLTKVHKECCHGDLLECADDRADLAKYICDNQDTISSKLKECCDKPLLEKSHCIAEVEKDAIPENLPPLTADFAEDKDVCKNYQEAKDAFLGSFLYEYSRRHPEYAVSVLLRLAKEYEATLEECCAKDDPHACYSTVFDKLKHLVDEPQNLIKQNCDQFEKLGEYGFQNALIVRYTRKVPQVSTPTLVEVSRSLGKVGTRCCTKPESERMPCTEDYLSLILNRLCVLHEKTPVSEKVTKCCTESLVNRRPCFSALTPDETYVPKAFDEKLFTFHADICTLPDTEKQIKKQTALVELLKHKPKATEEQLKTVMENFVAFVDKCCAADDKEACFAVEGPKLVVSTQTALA

IC50 (calculated by regression analysis): 765 µM | The average concentration of AGEs in the sample at a given concentration of the drug (Δ %, M ± m) (drug concentration 3*10^−4 mol): 50.25 ± 1.08 Δ % | The average concentration of AGEs in the sample at a given concentration of the drug (Δ %, M ± m) (drug concentration 3*10^−5 mol): 19.14 ± 2.24 Δ % | The average concentration of AGEs in the sample at a given concentration of the drug (Δ %, M ± m) (drug concentration 10^−3 mol): 58.08 ± 0.72 Δ % | The average concentration of AGEs in the sample at a given concentration of the drug (Δ %, M ± m) (drug concentration 10^−4 mol): 38.75 ± 1.52 Δ % | The average concentration of AGEs in the sample at a given concentration of the drug (Δ %, M ± m) (drug concentration 10^−5 mol): 3.53 ± 2.31 Δ %
SMILES: N=C(N)NN [Aminoguanidine, aminoguanidine]
